Test results taken from ChEMBL document CHEMBL1759873, “Novel thiolactone-isatin hybrids as potential antimalarial and antitubercular agents” (Bioorg Med Chem Lett, 2011).
Converted amounts (≈) assume the structure as drawn.

What was measured:
[1] = Inhibition of Plasmodium falciparum W2 recombinant falcipain-2
[2] = system: Mycobacterium tuberculosis; test: Antitubercular activity against Mycobacterium tuberculosis H37Rv at 1 ug/ml by BACTEC radiometric susceptibility assay; assay type: functional
[3] = system: Mycobacterium tuberculosis; test: Antitubercular activity against Mycobacterium tuberculosis H37Rv by microplate alamar blue assay; assay type: functional
[4] = system: Mycobacterium tuberculosis; test: Antitubercular activity against Mycobacterium tuberculosis H37Rv at 10 ug/ml by BACTEC radiometric susceptibility assay; assay type: functional
Plasmodium falciparum = test: Antiplasmodial activity against Plasmodium falciparum W2; assay type: functional, organism-based
[5] = system: Mycobacterium tuberculosis; test: Antitubercular activity against Mycobacterium tuberculosis H37Rv by LORA assay; assay type: functional

Compound: CC1=C(OCCN2C(=O)C(=O)c3ccccc32)C(C)SC1=O (stereo unspecified)
- IC50 [1]: 40.2 µM
- inhibition at 1 µg/mL [2]: 31.7%
- MIC [3]: > 128 µM
- inhibition at 10 µg/mL [4]: 34.7%
- IC50 (Plasmodium falciparum): > 20 µM

Compound: CC1=C2OCCCCN3C(=O)C(O)(c4ccccc43)C2(C)SC1=O (stereo unspecified)
- IC50 [1]: > 100 µM
- inhibition at 1 µg/mL [2]: 17%
- MIC [3]: > 128 µM
- inhibition at 10 µg/mL [4]: 18.1%
- IC50 (Plasmodium falciparum): > 20 µM

Compound: O=[N+]([O-])c1cn2c(n1)OC[C@@H](OCc1ccc(OC(F)(F)F)cc1)C2 [PRETOMANID]
- MIC [3]: 0.16 µM (≈ 0.0575 µg/mL)
- MIC [5]: 3.3 µM (≈ 1.19 µg/mL)

Compound: CC1=C(OCCN2C(=O)C(=O)c3cc(F)ccc32)C(C)SC1=O (stereo unspecified)
- IC50 [1]: 89.6 µM
- inhibition at 1 µg/mL [2]: -29%
- MIC [3]: > 128 µM
- inhibition at 10 µg/mL [4]: 22%
- IC50 (Plasmodium falciparum): > 20 µM

Compound: O=C1C(=O)N(CCCCBr)c2ccccc21
- IC50 [1]: > 100 µM
- MIC [3]: 96.5 µM (≈ 27.2 µg/mL)
- MIC [5]: 28.8 µM (≈ 8.13 µg/mL)
- IC50 (Plasmodium falciparum): > 20 µM

Compound: CC1=C2OCCCCCN3C(=O)C(O)(c4cc(Cl)ccc43)C2(C)SC1=O (stereo unspecified)
- IC50 [1]: > 100 µM
- inhibition at 1 µg/mL [2]: 0%
- MIC [3]: > 128 µM
- inhibition at 10 µg/mL [4]: -15.2%
- IC50 (Plasmodium falciparum): > 20 µM

Compound: CC1=C2OCCCCN3C(=O)C(O)(c4cc(I)ccc43)C2(C)SC1=O (stereo unspecified)
- IC50 [1]: > 100 µM
- inhibition at 1 µg/mL [2]: 4.9%
- MIC [3]: > 128 µM
- inhibition at 10 µg/mL [4]: 19.6%
- IC50 (Plasmodium falciparum): > 20 µM

Compound: O=C1C(=O)N(CCCCBr)c2ccc(Cl)cc21
- IC50 [1]: > 100 µM
- MIC [3]: 30.5 µM (≈ 9.66 µg/mL)
- MIC [5]: 30.5 µM (≈ 9.66 µg/mL)
- IC50 (Plasmodium falciparum): > 20 µM

Compound: CC(C)C[C@H](NC(=O)[C@H]1O[C@@H]1C(=O)O)C(=O)NCCCCN=C(N)N [E-64]
- IC50 [1]: 0.0473 µM

Compound: CC1=C2OCCCCN3C(=O)C(O)(c4cc(F)ccc43)C2(C)SC1=O (stereo unspecified)
- IC50 [1]: > 100 µM
- inhibition at 1 µg/mL [2]: 4.9%
- MIC [3]: > 128 µM
- inhibition at 10 µg/mL [4]: 1.3%
- IC50 (Plasmodium falciparum): > 20 µM

Compound: CC1=C2OCCCCCCN3C(=O)C(O)(c4cc(Cl)ccc43)C2(C)SC1=O (stereo unspecified)
- IC50 [1]: > 100 µM
- inhibition at 1 µg/mL [2]: -16%
- MIC [3]: > 128 µM
- inhibition at 10 µg/mL [4]: -20%
- IC50 (Plasmodium falciparum): 7.41 µM

Compound: CC1=C(OCCCCCN2C(=O)C(=O)c3ccccc32)C(C)SC1=O (stereo unspecified)
- IC50 [1]: 58 µM
- inhibition at 1 µg/mL [2]: 34.9%
- MIC [3]: > 128 µM
- inhibition at 10 µg/mL [4]: 34%
- IC50 (Plasmodium falciparum): 15.3 µM

Compound: CC1=C2OCCCCCN3C(=O)C(O)(c4cc(Br)ccc43)C2(C)SC1=O (stereo unspecified)
- IC50 [1]: 10.1 µM
- inhibition at 1 µg/mL [2]: -26%
- MIC [3]: > 128 µM
- inhibition at 10 µg/mL [4]: -21.1%
- IC50 (Plasmodium falciparum): > 20 µM

Compound: O=C1C(=O)N(CCBr)c2ccccc21
- IC50 [1]: > 100 µM
- MIC [3]: > 128 µM
- IC50 (Plasmodium falciparum): > 20 µM

Compound: O=C1C(=O)N(CCCCCCBr)c2ccc(Cl)cc21
- MIC [3]: 29.7 µM (≈ 10.2 µg/mL)
- MIC [5]: 31 µM (≈ 10.7 µg/mL)

Compound: NNC(=O)c1ccncc1 [ISONIAZID]
- MIC [3]: 0.37 µM (≈ 0.0507 µg/mL)
- MIC [5]: > 128 µM

Compound: C=C/C(C)=C/[C@@]1(C)SC(=O)C(C)=C1O [THIOLACTOMYCIN]
- IC50 [1]: > 100 µM
- inhibition at 1 µg/mL [2]: -3.8%
- MIC [3]: > 128 µM
- inhibition at 10 µg/mL [4]: 58.6%
- IC50 (Plasmodium falciparum): > 20 µM

Compound: Cc1ccc2c(c1)C(=O)C(=O)N2CCCCBr
- IC50 [1]: > 100 µM
- MIC [3]: 62.7 µM (≈ 18.6 µg/mL)
- MIC [5]: 53.2 µM (≈ 15.8 µg/mL)
- IC50 (Plasmodium falciparum): > 20 µM

Compound: CC1=C(OCCCCCCN2C(=O)C(=O)c3ccccc32)C(C)SC1=O (stereo unspecified)
- IC50 [1]: 32 µM
- inhibition at 1 µg/mL [2]: 27.7%
- MIC [3]: > 128 µM
- inhibition at 10 µg/mL [4]: 36.4%
- IC50 (Plasmodium falciparum): 12.3 µM

Compound: CC1=C(O)SC(C)C1=O (stereo unspecified) [THIOLACTONE]
- IC50 [1]: > 100 µM
- inhibition at 1 µg/mL [2]: -24.5%
- MIC [3]: > 128 µM
- inhibition at 10 µg/mL [4]: -32.8%
- IC50 (Plasmodium falciparum): > 20 µM

Compound: O=C1C(=O)N(CCCBr)c2ccccc21
- IC50 [1]: > 100 µM
- MIC [3]: > 128 µM
- IC50 (Plasmodium falciparum): > 20 µM

Compound: O=C1C(=O)N(CCCCBr)c2ccc(I)cc21
- IC50 [1]: > 100 µM
- MIC [3]: 15.5 µM (≈ 6.32 µg/mL)
- MIC [5]: 57.1 µM (≈ 23.3 µg/mL)
- IC50 (Plasmodium falciparum): > 20 µM

Compound: CC1=C2OCCCCN3C(=O)C(O)(c4cc(C)ccc43)C2(C)SC1=O (stereo unspecified)
- IC50 [1]: > 100 µM
- inhibition at 1 µg/mL [2]: -0.6%
- MIC [3]: > 128 µM
- inhibition at 10 µg/mL [4]: -0.4%
- IC50 (Plasmodium falciparum): > 20 µM

Compound: CN[C@@H]1[C@H](O[C@H]2[C@H](O[C@H]3[C@H](O)[C@@H](O)[C@H](N=C(N)N)[C@@H](O)[C@@H]3N=C(N)N)O[C@@H](C)[C@]2(O)C=O)O[C@@H](CO)[C@H](O)[C@H]1O [STREPTOMYCIN]
- MIC [3]: 0.43 µM (≈ 0.25 µg/mL)

Compound: CC1=C2OCCCCCN3C(=O)C(O)(c4ccccc43)C2(C)SC1=O (stereo unspecified)
- IC50 [1]: > 100 µM
- inhibition at 1 µg/mL [2]: 21.9%
- MIC [3]: > 128 µM
- inhibition at 10 µg/mL [4]: 32.6%
- IC50 (Plasmodium falciparum): > 20 µM

Compound: CC1=C(OCCN2C(=O)C(=O)c3cc(C)ccc32)C(C)SC1=O (stereo unspecified)
- IC50 [1]: > 100 µM
- inhibition at 1 µg/mL [2]: -12%
- MIC [3]: > 128 µM
- inhibition at 10 µg/mL [4]: 4%
- IC50 (Plasmodium falciparum): > 20 µM

Compound: CC1=C2OCCCCN3C(=O)C(O)(c4cc(Br)ccc43)C2(C)SC1=O (stereo unspecified)
- IC50 [1]: > 100 µM
- inhibition at 1 µg/mL [2]: -16.2%
- MIC [3]: > 128 µM
- inhibition at 10 µg/mL [4]: 5.1%
- IC50 (Plasmodium falciparum): > 20 µM

Compound: O=C1C(=O)N(CCCCBr)c2ccc([N+](=O)[O-])cc21
- IC50 [1]: > 100 µM
- MIC [3]: > 128 µM
- IC50 (Plasmodium falciparum): > 20 µM

Compound: CC1=C2OCCCCCCN3C(=O)C(O)(c4cc(F)ccc43)C2(C)SC1=O (stereo unspecified)
- IC50 [1]: > 100 µM
- inhibition at 1 µg/mL [2]: -35%
- MIC [3]: > 128 µM
- inhibition at 10 µg/mL [4]: -28%
- IC50 (Plasmodium falciparum): 14 µM

Compound: CO[C@H]1/C=C/O[C@@]2(C)Oc3c(C)c(O)c4c(O)c(c(/C=N/N5CCN(C)CC5)c(O)c4c3C2=O)NC(=O)/C(C)=C\C=C\[C@H](C)[C@H](O)[C@@H](C)[C@@H](O)[C@@H](C)[C@H](OC(C)=O)[C@@H]1C [RIFAMPIN]
- MIC [3]: 0.05 µM (≈ 0.0411 µg/mL)
- MIC [5]: 2.4 µM (≈ 1.98 µg/mL)

Compound: CC1=C(OCCCCN2C(=O)C(=O)c3ccccc32)C(C)SC1=O (stereo unspecified)
- IC50 [1]: > 100 µM
- inhibition at 1 µg/mL [2]: 33.4%
- MIC [3]: > 128 µM
- inhibition at 10 µg/mL [4]: 42.6%
- IC50 (Plasmodium falciparum): > 20 µM

Compound: CC1=C(OCCN2C(=O)C(=O)c3cc(I)ccc32)C(C)SC1=O (stereo unspecified)
- IC50 [1]: 17.8 µM
- inhibition at 1 µg/mL [2]: -3.2%
- MIC [3]: > 128 µM
- inhibition at 10 µg/mL [4]: 42%
- IC50 (Plasmodium falciparum): > 20 µM

Compound: CC1=C2OCCCCN3C(=O)C(O)(c4cc(Cl)ccc43)C2(C)SC1=O (stereo unspecified)
- IC50 [1]: > 100 µM
- inhibition at 1 µg/mL [2]: 13.4%
- MIC [3]: > 128 µM
- inhibition at 10 µg/mL [4]: 15.3%
- IC50 (Plasmodium falciparum): > 20 µM

Compound: COc1c(N2C[C@@H]3CCCN[C@@H]3C2)c(F)cc2c(=O)c(C(=O)O)cn(C3CC3)c12 [MOXIFLOXACIN]
- MIC [3]: 0.29 µM (≈ 0.116 µg/mL)
- MIC [5]: 31.1 µM (≈ 12.5 µg/mL)

Compound: CC1=C(OCCN2C(=O)C(=O)c3cc(Br)ccc32)C(C)SC1=O (stereo unspecified)
- IC50 [1]: 31.7 µM
- IC50 (Plasmodium falciparum): 17.4 µM

Compound: CC1=C2OCCCCCN3C(=O)C(O)(c4cc(I)ccc43)C2(C)SC1=O (stereo unspecified)
- IC50 [1]: > 100 µM
- inhibition at 1 µg/mL [2]: -39.7%
- MIC [3]: > 128 µM
- inhibition at 10 µg/mL [4]: -40.7%
- IC50 (Plasmodium falciparum): > 20 µM

Compound: CC1=C(OCCCN2C(=O)C(=O)c3ccccc32)C(C)SC1=O (stereo unspecified)
- IC50 [1]: > 100 µM
- inhibition at 1 µg/mL [2]: -18.5%
- MIC [3]: > 128 µM
- inhibition at 10 µg/mL [4]: 14.9%
- IC50 (Plasmodium falciparum): > 20 µM

Compound: CC1=C2OCCCCCCN3C(=O)C(O)(c4cc(Br)ccc43)C2(C)SC1=O (stereo unspecified)
- IC50 [1]: 83.4 µM
- inhibition at 1 µg/mL [2]: 8.1%
- MIC [3]: > 128 µM
- inhibition at 10 µg/mL [4]: -0.5%
- IC50 (Plasmodium falciparum): 6.93 µM

Compound: CC1=C2OCCCCCCN3C(=O)C(O)(c4ccccc43)C2(C)SC1=O (stereo unspecified)
- IC50 [1]: > 100 µM
- inhibition at 1 µg/mL [2]: 9.4%
- MIC [3]: > 128 µM
- inhibition at 10 µg/mL [4]: 18.5%
- IC50 (Plasmodium falciparum): 11.5 µM

Compound: CC1=C2OCCCCCCN3C(=O)C(O)(c4cc(I)ccc43)C2(C)SC1=O (stereo unspecified)
- IC50 [1]: 48.3 µM
- inhibition at 1 µg/mL [2]: -34%
- MIC [3]: > 128 µM
- inhibition at 10 µg/mL [4]: -40%
- IC50 (Plasmodium falciparum): 6.92 µM

Compound: CC1=C2OCCCCN3C(=O)C(O)(c4cc([N+](=O)[O-])ccc43)C2(C)SC1=O (stereo unspecified)
- IC50 [1]: 44.5 µM
- inhibition at 1 µg/mL [2]: -3%
- MIC [3]: > 128 µM
- inhibition at 10 µg/mL [4]: -5.1%
- IC50 (Plasmodium falciparum): > 20 µM

Compound: O=C1C(=O)N(CCCCCCBr)c2ccc(F)cc21
- MIC [3]: 62.3 µM (≈ 20.4 µg/mL)
- MIC [5]: 31.5 µM (≈ 10.3 µg/mL)
